ChEMBL document CHEMBL1909046, “DrugMatrix in vitro pharmacology data”

Assays:
D(3) dopamine receptor = D(3) dopamine receptor (Homo sapiens, UniProt P35462); assay: DRUGMATRIX: Dopamine D3 radioligand binding (ligand: [3H] Spiperone); assay type: cell membranes, CHO, Membrane; settings: cho
[1] = DRUGMATRIX: Sodium/nucleoside co-transporter radioligand binding (ligand: nitrobenzylthioinosine); assay type: cell membranes, Cavia porcellus, Dunkin-Hartley, Cerebral cortex, Membrane; settings: Not Active = under 50% inhibition at 10 µM
Substance-P receptor = Substance-P receptor (Homo sapiens, UniProt P25103); assay type: cell membranes, Membrane; settings: cho; note: in other assays of this panel Not Active means under 50% inhibition at 10 µM
[2] = biological target: Beta-2 adrenergic receptor (Homo sapiens, UniProt P07550); assay: DRUGMATRIX: Adrenergic beta2 radioligand binding (ligand: [3H] CGP-12177); assay type: cell membranes, CHO, Membrane; settings: cho; Not Active = under 50% inhibition at 10 µM
[3] = biological target: T1, Neuropeptide Y receptor type 1 (Homo sapiens, UniProt P25929); assay type: cell membranes, Membrane; settings: sk-n-mc; note: in other assays of this panel Not Active means under 50% inhibition at 10 µM
T1 sequence (P25929 whole entry): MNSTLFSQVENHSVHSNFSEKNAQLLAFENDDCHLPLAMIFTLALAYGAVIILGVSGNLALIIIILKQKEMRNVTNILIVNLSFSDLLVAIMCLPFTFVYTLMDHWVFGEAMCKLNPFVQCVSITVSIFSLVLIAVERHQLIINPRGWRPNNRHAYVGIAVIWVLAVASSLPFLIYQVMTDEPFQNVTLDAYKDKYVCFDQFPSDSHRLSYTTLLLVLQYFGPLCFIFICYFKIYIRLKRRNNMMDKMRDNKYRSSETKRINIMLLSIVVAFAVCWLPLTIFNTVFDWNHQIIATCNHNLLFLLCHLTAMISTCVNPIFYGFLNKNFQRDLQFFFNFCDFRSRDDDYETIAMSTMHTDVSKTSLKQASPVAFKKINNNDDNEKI

Thromboxane-A synthase = biological target: T2, Thromboxane-A synthase (Homo sapiens, UniProt P24557); assay: biochemical; assay type: tissue-based, Platelet; settings: platelet;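 note: enzyme inhibition assay with PGH2 supplied as substrate; in other assays of this panel Not Active means under 50% inhibition at 10 µM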
T2 sequence (P24557 whole entry): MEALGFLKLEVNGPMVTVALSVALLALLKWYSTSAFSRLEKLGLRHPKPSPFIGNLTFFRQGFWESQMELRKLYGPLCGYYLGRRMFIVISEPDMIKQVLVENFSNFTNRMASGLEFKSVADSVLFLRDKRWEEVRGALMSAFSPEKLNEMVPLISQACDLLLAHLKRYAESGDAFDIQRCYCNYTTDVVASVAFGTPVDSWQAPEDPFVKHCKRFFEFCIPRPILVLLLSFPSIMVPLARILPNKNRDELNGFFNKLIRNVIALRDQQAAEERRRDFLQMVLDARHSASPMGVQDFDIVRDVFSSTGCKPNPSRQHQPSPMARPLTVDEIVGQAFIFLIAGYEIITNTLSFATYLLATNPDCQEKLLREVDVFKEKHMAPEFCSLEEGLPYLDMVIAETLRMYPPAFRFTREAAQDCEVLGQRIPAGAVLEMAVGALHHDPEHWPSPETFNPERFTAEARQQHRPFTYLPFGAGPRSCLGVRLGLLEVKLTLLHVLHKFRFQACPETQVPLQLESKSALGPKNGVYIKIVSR

[4] = biological target: T3, Nitric oxide synthase, inducible (Mus musculus, UniProt P29477); parameters: species or system Escherichia coli;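 note: inhibition of iNOS enzyme activity measured with L-arginine as substrate; in other assays of this panel Not Active means under 50% inhibition at 10 µM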
T3 sequence (P29477 whole entry): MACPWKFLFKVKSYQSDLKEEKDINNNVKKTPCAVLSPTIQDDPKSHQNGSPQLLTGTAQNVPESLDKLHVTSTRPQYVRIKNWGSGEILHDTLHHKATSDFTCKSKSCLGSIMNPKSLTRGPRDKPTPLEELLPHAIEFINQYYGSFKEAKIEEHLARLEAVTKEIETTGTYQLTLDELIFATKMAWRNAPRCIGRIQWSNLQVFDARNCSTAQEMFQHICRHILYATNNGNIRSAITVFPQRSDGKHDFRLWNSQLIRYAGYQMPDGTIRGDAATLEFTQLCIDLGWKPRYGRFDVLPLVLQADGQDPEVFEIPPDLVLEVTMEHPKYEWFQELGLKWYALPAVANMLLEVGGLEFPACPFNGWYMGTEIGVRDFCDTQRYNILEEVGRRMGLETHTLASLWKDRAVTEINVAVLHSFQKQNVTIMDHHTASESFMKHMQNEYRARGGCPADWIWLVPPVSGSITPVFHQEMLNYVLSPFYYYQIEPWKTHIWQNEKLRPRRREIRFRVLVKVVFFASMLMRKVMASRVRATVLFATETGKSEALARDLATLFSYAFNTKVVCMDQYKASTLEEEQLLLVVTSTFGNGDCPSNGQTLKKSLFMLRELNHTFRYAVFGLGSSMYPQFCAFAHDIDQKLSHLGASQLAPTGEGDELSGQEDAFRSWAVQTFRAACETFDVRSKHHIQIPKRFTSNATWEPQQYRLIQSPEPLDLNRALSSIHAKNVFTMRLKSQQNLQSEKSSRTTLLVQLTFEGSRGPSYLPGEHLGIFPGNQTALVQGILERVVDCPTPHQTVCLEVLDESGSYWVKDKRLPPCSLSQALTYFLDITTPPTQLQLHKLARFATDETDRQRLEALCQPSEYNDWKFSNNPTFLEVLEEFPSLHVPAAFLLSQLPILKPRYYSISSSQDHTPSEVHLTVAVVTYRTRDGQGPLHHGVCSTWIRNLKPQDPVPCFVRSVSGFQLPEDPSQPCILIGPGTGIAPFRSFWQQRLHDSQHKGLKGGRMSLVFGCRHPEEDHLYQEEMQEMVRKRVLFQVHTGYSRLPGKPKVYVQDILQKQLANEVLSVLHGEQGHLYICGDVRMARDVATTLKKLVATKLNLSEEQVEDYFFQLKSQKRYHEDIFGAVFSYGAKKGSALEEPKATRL

[5] = DRUGMATRIX: GABAA, Muscimol, Central radioligand binding (ligand: [3H] Muscimol); assay type: cell membranes, Rattus norvegicus, Wistar, Brain, Membrane; settings: Not Active = under 50% inhibition at 10 µM

Sequence of D(3) dopamine receptor (P35462 whole entry): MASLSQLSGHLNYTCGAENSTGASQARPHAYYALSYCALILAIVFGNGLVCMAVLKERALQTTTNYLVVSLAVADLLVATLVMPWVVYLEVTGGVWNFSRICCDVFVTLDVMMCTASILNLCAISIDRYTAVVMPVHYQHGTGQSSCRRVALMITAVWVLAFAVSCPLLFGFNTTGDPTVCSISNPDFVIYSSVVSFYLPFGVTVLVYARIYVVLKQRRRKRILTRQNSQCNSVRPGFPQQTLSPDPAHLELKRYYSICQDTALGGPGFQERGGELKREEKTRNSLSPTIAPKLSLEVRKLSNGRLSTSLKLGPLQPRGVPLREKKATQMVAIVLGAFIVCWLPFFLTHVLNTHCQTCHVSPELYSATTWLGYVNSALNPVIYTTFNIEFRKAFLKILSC
Sequence of Beta-2 adrenergic receptor (P07550 whole entry): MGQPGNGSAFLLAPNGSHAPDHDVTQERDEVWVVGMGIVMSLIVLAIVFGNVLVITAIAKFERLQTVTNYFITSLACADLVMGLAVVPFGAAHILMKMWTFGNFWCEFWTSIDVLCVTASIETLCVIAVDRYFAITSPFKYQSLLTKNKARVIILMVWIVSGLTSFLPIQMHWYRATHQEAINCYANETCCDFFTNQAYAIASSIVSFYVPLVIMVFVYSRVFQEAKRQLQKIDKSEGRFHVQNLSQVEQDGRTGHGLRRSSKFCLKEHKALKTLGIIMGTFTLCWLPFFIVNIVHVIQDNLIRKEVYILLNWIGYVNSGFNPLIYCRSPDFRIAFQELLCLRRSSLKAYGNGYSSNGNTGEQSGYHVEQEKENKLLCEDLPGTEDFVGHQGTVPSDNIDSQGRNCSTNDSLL
Sequence of Substance-P receptor (P25103 whole entry): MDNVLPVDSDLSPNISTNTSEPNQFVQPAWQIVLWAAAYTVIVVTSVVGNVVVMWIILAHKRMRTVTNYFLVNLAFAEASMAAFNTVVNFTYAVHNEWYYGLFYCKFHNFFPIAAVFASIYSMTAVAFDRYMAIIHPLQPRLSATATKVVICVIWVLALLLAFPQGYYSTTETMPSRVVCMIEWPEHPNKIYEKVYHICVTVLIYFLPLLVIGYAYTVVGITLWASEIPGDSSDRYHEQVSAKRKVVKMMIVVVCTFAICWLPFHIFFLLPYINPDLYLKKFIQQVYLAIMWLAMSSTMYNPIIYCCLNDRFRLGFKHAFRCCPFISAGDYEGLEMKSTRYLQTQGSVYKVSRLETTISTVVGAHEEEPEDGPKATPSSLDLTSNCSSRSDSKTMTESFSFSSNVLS

Nn1nnc2ccccc21
Not Active: IC50 (D(3) dopamine receptor) | IC50 [1] | Ki [1] | IC50 (Substance-P receptor) | IC50 [2] | IC50 [3] | IC50 (Thromboxane-A synthase) | IC50 [4] | IC50 [5] | Ki [5]

CC[C@]1(O)CC[C@H]2[C@@H]3CCC4=CCCC[C@@H]4[C@H]3CC[C@@]21C
Not Active: IC50 (D(3) dopamine receptor) | IC50 [1] | Ki [1] | IC50 (Substance-P receptor) | IC50 [2] | IC50 [3] | IC50 (Thromboxane-A synthase) | IC50 [4] | IC50 [5] | Ki [5]

N[C@@H](Cc1ccc(F)cc1)C(=O)O
Not Active: IC50 (D(3) dopamine receptor) | IC50 [1] | Ki [1] | IC50 (Substance-P receptor) | IC50 [2] | IC50 [3] | IC50 (Thromboxane-A synthase) | IC50 [4] | IC50 [5] | Ki [5]

CCOC(=O)[C@H](CCc1ccccc1)N[C@@H](C)C(=O)N1Cc2ccccc2C[C@H]1C(=O)O
Not Active: IC50 (D(3) dopamine receptor) | IC50 [1] | Ki [1] | IC50 (Substance-P receptor) | IC50 [2] | IC50 [3] | IC50 (Thromboxane-A synthase) | IC50 [4] | IC50 [5] | Ki [5]

O=C(c1ccccc1Cl)N1CCC(Cc2ccccc2)CC1
Not Active: IC50 (D(3) dopamine receptor) | IC50 [1] | Ki [1] | IC50 (Substance-P receptor) | IC50 [2] | IC50 [3] | IC50 (Thromboxane-A synthase) | IC50 [4] | IC50 [5] | Ki [5]

CCOC(=O)[C@H](CCc1ccccc1)N[C@@H](C)C(=O)N1CCC[C@H]1C(=O)O
Not Active: IC50 (D(3) dopamine receptor) | IC50 [1] | Ki [1] | IC50 (Substance-P receptor) | IC50 [2] | IC50 [3] | IC50 (Thromboxane-A synthase) | IC50 [4] | IC50 [5] | Ki [5]

Clc1cc2c(cc1Cl)Oc1cc(Cl)c(Cl)cc1O2 [2,3,7,8-TETRACHLORODIBENZO-P-DIOXIN]
Not Active: IC50 (D(3) dopamine receptor) | IC50 [1] | Ki [1] | IC50 (Substance-P receptor) | IC50 [2] | IC50 [3] | IC50 (Thromboxane-A synthase) | IC50 [4] | IC50 [5] | Ki [5]

C=C1/C(=C\C=C2/CCC[C@]3(C)[C@@H]([C@H](C)CCCC(C)C)CC[C@@H]23)C[C@@H](O)C[C@@H]1O [ALFACALCIDOL]
Not Active: IC50 (D(3) dopamine receptor) | IC50 [1] | Ki [1] | IC50 (Substance-P receptor) | IC50 [2] | IC50 [3] | IC50 (Thromboxane-A synthase) | IC50 [4] | IC50 [5] | Ki [5]

CCCCCC[C@H]1C(=O)O[C@H](C)[C@H](NC(=O)c2cccc(NC=O)c2O)C(=O)O[C@@H](C)[C@@H]1OC(=O)CC(C)C [ANTIMYCIN A]
Not Active: IC50 (D(3) dopamine receptor) | IC50 [1] | Ki [1] | IC50 (Substance-P receptor) | IC50 [2] | IC50 [3] | IC50 (Thromboxane-A synthase) | IC50 [4] | IC50 [5] | Ki [5]

C[C@@H]1CC[C@H]2[C@@H](C)C(=O)O[C@@H]3O[C@@]4(C)CC[C@@H]1[C@]32OO4 [ARTEMISININ]
Not Active: IC50 (D(3) dopamine receptor) | IC50 [1] | Ki [1] | IC50 (Substance-P receptor) | IC50 [2] | IC50 [3] | IC50 (Thromboxane-A synthase) | IC50 [4] | IC50 [5] | Ki [5]

CO[C@H]1[C@@H](O)[C@H](N)[C@@H](O[C@H]2O[C@H]([C@H](C)N)CC[C@H]2N)[C@H](O)[C@@H]1N(C)C(=O)CN [ASTROMICIN]
Not Active: IC50 (D(3) dopamine receptor) | IC50 [1] | Ki [1] | IC50 (Substance-P receptor) | IC50 [2] | IC50 [3] | IC50 (Thromboxane-A synthase) | IC50 [4] | IC50 [5] | Ki [5]

[N-]=[N+]=CC(=O)OC[C@H](N)C(=O)O [AZASERINE]
Not Active: IC50 (D(3) dopamine receptor) | IC50 [1] | Ki [1] | IC50 (Substance-P receptor) | IC50 [2] | IC50 [3] | IC50 (Thromboxane-A synthase) | IC50 [4] | IC50 [5] | Ki [5]

Cc1cnc(C(=O)NCCc2ccc(S(=O)(=O)NC(=O)NC3CCCCC3)cc2)cn1 [GLIPIZIDE]
Not Active: IC50 (D(3) dopamine receptor) | IC50 [1] | Ki [1] | IC50 (Substance-P receptor) | IC50 [2] | IC50 [3] | IC50 (Thromboxane-A synthase) | IC50 [5] | Ki [5]
